Experimental data published in US20260374739A1, “SMALL MOLECULAR WEIGHT CHEMICAL COMPOUND TO ANTAGONIZE EPH-EPHRIN TETRAMERIZATION AND INHIBIT BIDIRECTIONAL SIGNALING” (THE BOARD OF REGENTS OF THE UNIVERSITY OF TEXAS SYSTEM, priority 2022, published 2026).
Read-outs that look alike come from different tables or passages of the source. Marks after values point to notes of the source that are not given here.

Experiments:
[1] = target: T1, EphrinB2-EphB1 (Homo sapiens, UniProt P54762); assay: Octet 80 sec association/500 sec dissociation, immobilized human EphrinB2-Fc binding to soluble human EphB1-His; conditions: for EphB1 Inhibition Percent, Inhibition of Association ONLY: at 3.2 μM and 80 seconds; for EphB1 Inhibition Percent, Inhibition of Association ONLY / EphB1 Inhibition Percent, Inhibition of Association-Dissociation: immobilized human EphrinB2, 25 nM soluble human EphB1; for EphB1 Inhibition Percent, Inhibition of Association-Dissociation: at 3.2 μM and 580 seconds
T1 construct: soluble human EphB1-His, EphB2-His, and EphB4-His ectodomains; commercially available human EphrinB1-Fc (EB1), EphrinB2-Fc (EB2), and EphrinB3-Fc (EB3) ectodomain proteins; purchased
T1 sequence (P54762 18-540 limits assumed): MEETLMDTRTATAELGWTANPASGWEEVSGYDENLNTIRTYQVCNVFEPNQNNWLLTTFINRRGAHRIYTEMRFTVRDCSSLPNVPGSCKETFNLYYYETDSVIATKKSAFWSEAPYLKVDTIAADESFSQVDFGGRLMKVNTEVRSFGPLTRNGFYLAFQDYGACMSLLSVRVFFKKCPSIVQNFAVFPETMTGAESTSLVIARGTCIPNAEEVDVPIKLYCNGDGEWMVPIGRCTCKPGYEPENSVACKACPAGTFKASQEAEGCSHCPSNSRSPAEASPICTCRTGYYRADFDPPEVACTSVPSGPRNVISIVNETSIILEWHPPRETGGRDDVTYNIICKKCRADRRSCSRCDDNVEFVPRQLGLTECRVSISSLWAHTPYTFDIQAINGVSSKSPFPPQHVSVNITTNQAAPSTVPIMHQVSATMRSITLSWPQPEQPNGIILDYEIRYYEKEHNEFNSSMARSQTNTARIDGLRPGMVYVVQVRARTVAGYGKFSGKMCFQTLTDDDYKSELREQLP
Description: (§1) In another experiment, whether certain A20 analogs might have specificity for different Eph receptors was tested. An Octet RED384 system was used to obtain biophysical ON-OFF binding data (association-dissociation) for the three different human EphrinB2-EphB1, EphrinB2-EphB2, and EphrinB2-EphB4 protein-protein interactions and to assess the effect of A20 chemicals on the binding kinetics.
(§2) FIGS. 72A-72C show three example Octet sensorgram response traces for the immobilized human EphrinB2 ectodomain protein binding to soluble forms of the human EphB1, EphB2, and EphB4 ectodomain proteins, in the absence or presence of an A20 chemical (buffer conditions are always PBSTD:PBS with 0.05% Tween-20, 1% DMSO, and +/− indicated chemical). After loading EphrinB2-Fc protein to Octet AHC biosensors, washing, and obtaining stable baseline measurements in the appropriate PBSTD (either with or without indicated chemical), the sensors are placed in its buffer that also contains the indicated soluble EphB protein for the association step (0-80″), and then returned to its buffer for the dissociation step (81″-580″). In each figure (FIGS. 72A-72C), a sensorgram run using 10 μM of the 2×HCl salt form of A20-I is compared to the no compound control run to exemplify the maximum level of reduced response signal typically obtained with a potent A20 chemical.
(§3) Because the response levels during the dissociation step plateau for the EphrinB2-EphB2 and EphrinB2-EphB1 interactions by the first 80″, AUCs were also calculated for run data encompassing the first 160″ of each experiment to account for both the 80″ association data (red asterisks) and the first 80″ of dissociation data (marked by green line and asterisks).
(§4) The selectivity of another A20 analog (a 3×HCL salt form of compound BQPB4) in comparison to previously tested compound, A20-1, was tested as described in Example 27 above.
(§5) Further to the experiments listed above, a series of dose-response experiments were conducted to determine the IC50 of a selected A20 chemical (A20-1) on the kinetics of human EphrinB2 ligand ectodomain protein binding to its cognate human EphB1, EphB2, and EphB4 receptor ectodomain proteins. FIG. 74A-74C are representative sensorgrams showing the effect of 0, 0.1, 0.2, 0.4, 0.8, 1.6, and 3.2 μM, concentrations of the 2×HCl salt of A20-I along with a 10 μM max standard (also A20-1) on three different Ephrin-EphB interactions (e.g., EphB1 in FIG. 74A, EphB2 in FIG. 74B and EphB4 in FIG. 74C). […] Additional IC50 values were determined at specific timepoints, at 75″ into the association step and at 55″ into the dissociation step (135″).
(§6) All absolute and relative IC50 values are provided in the Table 6 below, where absolute are based off the full binding sensorgram traces, and relative are based off of the max control traces.
(§7) In another experiment, the % inhibition for various A20 analog chemicals against the three different EphrinB2-EphB protein interactions was determined. Specifically, the percent inhibition for immobilized human EphrinB2-Fc binding to 25 nM soluble human EphB1-His (FIG. 76A, enlarged in FIG. 76D), EphB2-His (FIG. 76B, enlarged in FIG. 76E), and EphB4-His (FIG. 76C, enlarged in FIG. 76F) with 3511-I, 8009-9255, QTM-Br, A19, A19-NO2, and IM (all at 3.2 μM) was determined.

[2] = target: T2, EphrinB2-EphB4 (Homo sapiens, UniProt P54760); assay: Octet 80 sec association/500 sec dissociation, immobilized human EphrinB2-Fc binding to soluble human EphB4-His; conditions: for EphB4 Inhibition Percent, Inhibition of Association ONLY: at 3.2 μM and 80 seconds; for EphB4 Inhibition Percent, Inhibition of Association ONLY / EphB4 Inhibition Percent, Inhibition of Association-Dissociation: immobilized human EphrinB2, 25 nM soluble human EphB4; for EphB4 Inhibition Percent, Inhibition of Association-Dissociation: at 3.2 μM and 580 seconds
T2 construct: soluble human EphB1-His, EphB2-His, and EphB4-His ectodomains; commercially available human EphrinB1-Fc (EB1), EphrinB2-Fc (EB2), and EphrinB3-Fc (EB3) ectodomain proteins; purchased
T2 sequence (P54760 16-539 limits assumed): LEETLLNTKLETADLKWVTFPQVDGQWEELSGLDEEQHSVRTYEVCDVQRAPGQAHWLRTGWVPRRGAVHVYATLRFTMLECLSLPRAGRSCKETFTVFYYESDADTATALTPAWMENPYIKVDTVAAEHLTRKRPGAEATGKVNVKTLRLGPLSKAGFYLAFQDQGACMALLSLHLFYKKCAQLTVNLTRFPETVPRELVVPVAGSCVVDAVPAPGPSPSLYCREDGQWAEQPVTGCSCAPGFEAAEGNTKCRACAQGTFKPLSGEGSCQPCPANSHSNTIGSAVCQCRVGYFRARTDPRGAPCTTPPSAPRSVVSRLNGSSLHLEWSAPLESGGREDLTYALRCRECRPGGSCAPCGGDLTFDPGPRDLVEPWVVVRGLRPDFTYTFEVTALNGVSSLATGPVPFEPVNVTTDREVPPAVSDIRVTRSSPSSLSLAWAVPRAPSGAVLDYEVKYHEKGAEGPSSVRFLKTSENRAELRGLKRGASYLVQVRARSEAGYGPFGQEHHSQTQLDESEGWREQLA
Description: as §1, §2, §3, §4, §5, §6, §7

[3] = target: T3, EphrinB2-EphB2 (Homo sapiens, UniProt P29323); assay: Octet tetramerization inhibition, immobilized human EphrinB2 binding to 50 nM soluble human EphB2
T3 construct: soluble human EphB1-His, EphB2-His, and EphB4-His ectodomains; commercially available human EphrinB1-Fc (EB1), EphrinB2-Fc (EB2), and EphrinB3-Fc (EB3) ectodomain proteins; purchased
T3 sequence (P29323 19-543 limits assumed): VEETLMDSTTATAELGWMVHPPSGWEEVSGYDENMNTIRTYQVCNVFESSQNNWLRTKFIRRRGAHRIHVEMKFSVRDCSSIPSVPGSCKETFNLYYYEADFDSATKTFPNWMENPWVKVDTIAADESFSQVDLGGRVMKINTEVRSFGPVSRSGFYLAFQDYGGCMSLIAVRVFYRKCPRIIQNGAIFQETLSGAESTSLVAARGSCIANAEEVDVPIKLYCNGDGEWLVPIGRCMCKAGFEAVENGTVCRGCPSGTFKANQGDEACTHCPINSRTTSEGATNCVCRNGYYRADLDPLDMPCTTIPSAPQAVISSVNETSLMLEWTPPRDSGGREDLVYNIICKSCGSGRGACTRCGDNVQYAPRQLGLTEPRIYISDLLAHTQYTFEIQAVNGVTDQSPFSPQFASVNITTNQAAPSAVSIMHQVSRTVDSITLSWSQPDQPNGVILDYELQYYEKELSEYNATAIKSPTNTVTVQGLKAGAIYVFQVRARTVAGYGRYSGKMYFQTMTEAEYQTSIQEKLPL

[4] = target: T3, EphrinB2-EphB2; assay: Octet 80 sec association/500 sec dissociation, immobilized human EphrinB2-Fc binding to soluble human EphB2-His; conditions: for EphB2 Inhibition Percent, Inhibition of Association ONLY: at 3.2 μM and 80 seconds; for EphB2 Inhibition Percent, Inhibition of Association ONLY / EphB2 Inhibition Percent, Inhibition of Association-Dissociation: immobilized human EphrinB2, 25 nM soluble human EphB2; for EphB2 Inhibition Percent, Inhibition of Association-Dissociation: at 3.2 μM and 580 seconds; for inhibition of EphrinB2-EphB interactions: 3.2 μM, EphB1, EphB2 and EphB4
Description: as §1, §2, §3, §4, §5, §6, §7

[5] = Absolute AUC/IC50, Table A, EphrinB2-EphB2
[6] = Absolute Association IC50 (300 sec), Table A, EphrinB2-EphB2
[7] = Absolute Dissociation IC50 (450 sec), Table A, EphrinB2-EphB2
[8] = Relative AUC/IC50, Table A, EphrinB2-EphB2, compound 7: association only
[9] = Relative Association IC50 (300 sec), Table A, EphrinB2-EphB2
[10] = Relative Dissociation IC50 (450 sec), Table A, EphrinB2-EphB2
[11] = tetramerization inhibitor IC50 (relative), association step, surmountable tetramer
[12] = EphB1, 25 nM EphB1, 3.2 μM compound, A20-I as max control, 0* = less than 0, no inhibition
[13] = EphB4, 25 nM EphB4, 3.2 μM compound, A20-I as max control, 0* = less than 0, no inhibition
[14] = EphB2, 25 nM EphB2, 3.2 μM compound, A20-I as max control, 0* = less than 0, no inhibition

| SMILES | EphB1 Inhibition Percent, Inhibition of Association ONLY [1] | EphB1 Inhibition Percent, Inhibition of Association-Dissociation [1] | EphB4 Inhibition Percent, Inhibition of Association ONLY [2] | EphB4 Inhibition Percent, Inhibition of Association-Dissociation [2] | IC50 [3, 5] [nM] | IC50 [3, 6] [nM] | IC50 [3, 7] [nM] | IC50 [3, 8] [nM] | IC50 [3, 9] [nM] | IC50 [3, 10] [nM] | IC50 [3, 11] [nM] | EphB2 Inhibition Percent, Inhibition of Association ONLY [4] | EphB2 Inhibition Percent, Inhibition of Association-Dissociation [4] | inhibition of EphrinB2-EphB interactions [4] | other results |
| --- | --- | --- | --- | --- | --- | --- | --- | --- | --- | --- | --- | --- | --- | --- | --- |
| OCc1ccc2c(CN3CCOCC3)ccc(O)c2n1 [Compound 12, 2-(hydroxymethyl)-5-(morpholinomethyl)quinolin-8-ol] | 17.4% | 17.4% | 11.0% | 11.0% | > 3200 | > 3200 | > 3200 | > 3200 | 2750 | 1480 | ~3000 | 48.1% | 48.1% |  |  |
| O=S1(=O)CCN(Cc2cc(Br)c(O)c3ncccc23)CC1 [Compound 16, 4-((7-bromo-8-hydroxyquinolin-5-yl)methyl)thiomorpholine 1,1-dioxide] |  |  |  |  |  |  |  |  |  |  | ~800 |  |  | activity similar to A20-I max control | inhibition at 3.2 µM ([1]; EphB1, 25 nM EphB1, 3.2 μM compound, A20-I as max control, 0* = less than 0, no inhibition, read-out: % Inhibition: Association + Dissociation (160 sec)): 48%; inhibition at 3.2 µM ([1]; EphB1, 25 nM EphB1, 3.2 μM compound, A20-I as max control, 0* = less than 0, no inhibition, read-out: % Inhibition: Association ONLY (80 sec)): 33%; inhibition at 3.2 µM ([2]; EphB4, 25 nM EphB4, 3.2 μM compound, A20-I as max control, 0* = less than 0, no inhibition, read-out: % Inhibition: Association + Dissociation (160 sec)): 37.2%; inhibition at 3.2 µM ([2]; EphB4, 25 nM EphB4, 3.2 μM compound, A20-I as max control, 0* = less than 0, no inhibition, read-out: % Inhibition: Association ONLY (80 sec)): 18.1%; inhibition at 3.2 µM ([4]; EphB2, 25 nM EphB2, 3.2 μM compound, A20-I as max control, 0* = less than 0, no inhibition, read-out: % Inhibition: Association + Dissociation (160 sec)): 74.5%; inhibition at 3.2 µM ([4]; EphB2, 25 nM EphB2, 3.2 μM compound, A20-I as max control, 0* = less than 0, no inhibition, read-out: % Inhibition: Association ONLY (80 sec)): 59.5% |
| O=S1(=O)CCN(Cc2cc(Br)c(O)c3ncccc23)CC1 [Compound 17, 4-((7-bromo-8-hydroxyquinolin-1-ium-5-yl)methyl)thiomorpholin-4-ium 1,1-dioxide chloride] | 33.0% | 48.0% | 18.1% | 37.2% | 1480 | 1500 | 1260 | 810 | 890 | 780 |  | 59.5% | 74.5% |  |  |
| Oc1cccc2cccnc12 [Compound 102, 8-Hydroxyquinoline, reference compound] | 0*% | 0*% | 0*% | 0*% |  |  |  |  |  |  |  | 0*% | 0*% | unable to disrupt any of the EphrinB2-EphB interactions | % Inhibition: Association + Dissociation (160 sec) [1, 12]: 0* %; % Inhibition: Association ONLY (80 sec) [1, 12]: 0* %; % Inhibition: Association + Dissociation (160 sec) [2, 13]: 0* %; % Inhibition: Association ONLY (80 sec) [2, 13]: 0* %; % Inhibition: Association + Dissociation (160 sec) [4, 14]: 0* %; % Inhibition: Association ONLY (80 sec) [4, 14]: 0* % |
